Experiments:
[1] = Evaluation of a conversion rate to 2-acetylnaphtho[2,3-b]furan-4,9-dione in CD1 mouse plasma; assay type: in vitro ADME; conditions: CD1 mouse plasma, 1 umol/L, 37° C., incubation time 120 min
How it was run: (§1)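 Compounds at 1 umol/L were incubated at 37° C in human plasma, CD1 mouse plasma or pH 7.4 phosphate buffer, sampled up to 120 minutes, acid/acetonitrile-deproteinised and analysed by LC-MS (ESI positive). Conversion (%) derived from the peak area ratio of the active form to phenytoin internal standard.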

[2] = Pharmacokinetics test, intravenous administration; conditions: for Plasma Compound Concentration: Activated form 1 in plasma, 10.5 mg/kg (i.v.)
Procedure: For water-soluble prodrugs described in the EXAMPLES, the concentration of 2-acetylnaphtho[2,3-b]furan-4,9-dione (Activated form 1) in plasma was measured. Animal species, an administration method, a method of making standard solutions, and a method of measuring the concentration in plasma are as described below.
Animal: Seven-week-aged male CD1 (ICR) mice were used as an experimental animal.
Administration method: A test substance was weighed, and then dissolved in 50 mmol/L glycine buffered saline (pH 2.0) to produce an administration solution. The body weight of a mouse was measured, and the prepared administration solution was intravenously administered.
Blood collecting method: Heparin was added to a blood-collecting vessel, and blood was collected from a mouse. To the obtained blood, 46% of Citric acid was added in 1% volume. It was then centrifuged to obtain plasma. To the collected plasma, 1 mol/L HCl was added in 10% volume to produce a plasma sample. A sample obtained by adding 10% volume of 1 mol/L HCl to blank plasma was used as a blank sample.
Making of a standard solution: One mg of a test sample was weighed, and dissolved in 10 mL of acetonitrile using a measuring flask to make a standard solution of 100 ug/mL.
Measurement of the concentration in plasma: One hundred ug/mL of the standard solution was diluted in 50% acetonitrile solution to make calibration curve samples of target concentrations. Twenty uL of a blank sample was added to 18 uL of the calibration curve sample to make a plasma calibration curve sample. Eighteen uL of 50% acetonitrile solution was added to 20 uL of the administered plasma sample to make a sample for plasma analysis. One hundred uL of acetonitrile (containing 1% volume of 10 mol/L HCl) containing an internal standard was added to the plasma calibration curve sample and the sample for plasma analysis, respectively. It should be noted that phenytoin was used as the internal standard and its concentration was prepared in 100 nmol/L. 10 uL of each sample was analyzed with LC-MS. A calibration curve was made from a value (peak ratio) of the peak area of a test substance in MS divided by the peak area of the internal standard, and the concentrations of plasma calibration curve samples. The concentration in a sample was calculated from the peak ratio of each sample and the calibration curve.

Solution stability test = assay type: physicochemical; conditions: for % Residual ratio: 25 umol/L
Procedure: For Example 6, Example 11, and Example 22, the stability in each pH was measured. Test compounds at a concentration of 25 umol/L in respective buffer solutions prepared at pH 2.0, 3.0, 5.0, 7.4, and 9.0 were allowed to stand at 25° C. After 0, 3, 6, 9, 12, and 24 hours, they were measured with HPLC.
The buffer solutions used at respective pHs are as described below. pH 2.0: 50 mmol/L glycine buffer solution pH 3.0: 50 mmol/L citrate buffer solution pH 5.0: 50 mmol/L citrate buffer solution pH 7.4: 50 mmol/L phosphate buffer solution pH 9.0: 50 mmol/L glycine buffer solution
The measurement condition of HPLC is as described below.
Column temperature: 40° C.
Mobile phase: A: 0.1% trifluoroacetic acid-containing water

Solubility test = conditions: 50 mmol/L glycine buffer solution (pH 2.0), room temperature, 24 hours shaking
Procedure: A water-soluble prodrug was added into 50 mmol/L glycine buffer solution (pH 2.0). After shaking at room temperature for 24 hours, the mixture was filtered through a membrane filter, and then the filtrate was measured with HPLC.
The measurement condition of HPLC is as described below. HPLC condition column: Acquity UPLC BEH C18, 1.7 um, 50×2.1 mm

[3] = Evaluation of a conversion rate to 2-acetylnaphtho[2,3-b]furan-4,9-dione in human plasma; assay type: in vitro ADME; conditions: Human plasma, 1 umol/L, 37° C., incubation time 120 min
How it was run: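 Compounds at 1 umol/L incubated at 37° C in human plasma, CD1 mouse plasma or pH 7.4 phosphate buffer, sampled up to 120 minutes. After acidified acetonitrile protein removal, parent loss and conversion to 2-acetylnaphtho[2,3-b]furan-4,9-dione measured by LC-MS (ESI positive).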

[4] = Evaluation of a conversion rate to 2-acetylnaphtho[2,3-b]furan-4,9-dione in pH 7.4 phosphate buffer solution; assay type: physicochemical; conditions: Phosphate buffer solution (pH 7.4), 1 umol/L, 37° C., incubation time 120 min
How it was run: as §1

COC(=O)[C@@H](N)CCNC(=O)Oc1c2ccccc2c(OC(=O)NCC[C@H](N)C(=O)OC)c2oc(C(C)=O)cc12.Cl.Cl [Example 11]
% Measurement value (conversion rate to 2-acetylnaphtho[2,3-b]furan-4,9-dione) [1]: 100%
Plasma Compound Concentration ([2]; 0.083 hr, animal 1): 3740 nM
Plasma Compound Concentration ([2]; 0.083 hr, animal 2): 4410 nM
Plasma Compound Concentration ([2]; 0.083 hr, animal 3): 5290 nM
Plasma Compound Concentration ([2]; 0.083 hr, mean): 4480 nM
Plasma Compound Concentration ([2]; 0.5 hr, animal 1): 690 nM
Plasma Compound Concentration ([2]; 0.5 hr, animal 2): 1170 nM
Plasma Compound Concentration ([2]; 0.5 hr, animal 3): 1390 nM
Plasma Compound Concentration ([2]; 0.5 hr, mean): 1080 nM
Plasma Compound Concentration ([2]; 1.0 hr, animal 1): 420 nM
Plasma Compound Concentration ([2]; 1.0 hr, animal 2): 620 nM
Plasma Compound Concentration ([2]; 1.0 hr, animal 3): 630 nM
Plasma Compound Concentration ([2]; 1.0 hr, mean): 560 nM
Plasma Compound Concentration ([2]; 2.0 hr, animal 1): 360 nM
Plasma Compound Concentration ([2]; 2.0 hr, animal 2): 280 nM
Plasma Compound Concentration ([2]; 2.0 hr, animal 3): 80 nM
Plasma Compound Concentration ([2]; 2.0 hr, mean): 240 nM
production of 2-acetylnaphtho[2,3-b]furan-4,9-dione (Activated form 1) (in words) ([2]; intravenously administered to mice): rapidly produced
stability in solution (in words) (Solution stability test; pH 2.0, 25° C.): very stable
% Residual ratio (Solution stability test; pH 2.0, 25° C., 0 hr): 100%
% Residual ratio (Solution stability test; pH 2.0, 25° C., 3 hr): 100%
% Residual ratio (Solution stability test; pH 2.0, 25° C., 6 hr): 102%
% Residual ratio (Solution stability test; pH 2.0, 25° C., 9 hr): 102%
% Residual ratio (Solution stability test; pH 2.0, 25° C., 12 hr): 104%
% Residual ratio (Solution stability test; pH 2.0, 25° C., 24 hr): 102%
stability in solution (in words) (Solution stability test; pH 3.0, 25° C.): sufficient stability
% Residual ratio (Solution stability test; pH 3.0, 25° C., 0 hr): 100%
% Residual ratio (Solution stability test; pH 3.0, 25° C., 3 hr): 98.6%
% Residual ratio (Solution stability test; pH 3.0, 25° C., 6 hr): 97.3%
% Residual ratio (Solution stability test; pH 3.0, 25° C., 9 hr): 98.8%
% Residual ratio (Solution stability test; pH 3.0, 25° C., 12 hr): 94.5%
% Residual ratio (Solution stability test; pH 3.0, 25° C., 24 hr): 90.7%
% Residual ratio (Solution stability test; pH 5.0, 25° C., 0 hr): 100%
% Residual ratio (Solution stability test; pH 5.0, 25° C., 3 hr): 36.0%
% Residual ratio (Solution stability test; pH 5.0, 25° C., 6 hr): 14.0%
% Residual ratio (Solution stability test; pH 5.0, 25° C., 9 hr): 5.2%
% Residual ratio (Solution stability test; pH 5.0, 25° C., 12 hr): 0%
% Residual ratio (Solution stability test; pH 5.0, 25° C., 24 hr): 0%
% Residual ratio (Solution stability test; pH 7.4, 25° C., 0 hr): 100%
% Residual ratio (Solution stability test; pH 7.4, 25° C., 3 hr): 0%
% Residual ratio (Solution stability test; pH 7.4, 25° C., 6 hr): 0%
% Residual ratio (Solution stability test; pH 7.4, 25° C., 9 hr): 0%
% Residual ratio (Solution stability test; pH 7.4, 25° C., 12 hr): 0%
% Residual ratio (Solution stability test; pH 7.4, 25° C., 24 hr): 0%
% Residual ratio (Solution stability test; pH 9.0, 25° C., 0 hr): 100%
% Residual ratio (Solution stability test; pH 9.0, 25° C., 3 hr): 0%
% Residual ratio (Solution stability test; pH 9.0, 25° C., 6 hr): 0%
% Residual ratio (Solution stability test; pH 9.0, 25° C., 9 hr): 0%
% Residual ratio (Solution stability test; pH 9.0, 25° C., 12 hr): 0%
% Residual ratio (Solution stability test; pH 9.0, 25° C., 24 hr): 0%
Solubility in pH 2.0 buffer solution (Solubility test): >5.0 mg/mL
% Measurement value (conversion rate to 2-acetylnaphtho[2,3-b]furan-4,9-dione) [3]: 100%
% Measurement value (conversion rate to 2-acetylnaphtho[2,3-b]furan-4,9-dione) [4]: 58%

— patent publication US10800752B2, “Substituted naphtho[2,3-b]furans as water-soluble prodrugs for preventing and/or treating cancer” (BOSTON BIOMEDICAL, INC., priority 2015, dated 2020)
